Reference: US8192962B2, “Processes for detecting toxic substances” (Daikin Industries, Ltd., priority 2001, dated 2012)

Test system: Metabolism protein genes
Assay: DNA chip mRNA expression in yeast, metabolism protein genes (Table 7)
Assay type: cell-based, Saccharomyces cerevisiae S288C
Summary of the method: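 Chemical exposure: 2 h, log-phase S. cerevisiae S288C, YPD, 25° C., dose set to inhibit growth without death. Profiling: mRNA labeled by reverse transcription with Cy3- or Cy5-dUTP, hybridized to whole-genome array. Output: fluorescence ratio against untreated culture.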

## [Cl][Pb][Cl] [(4), PbCl2]
Yeast gene YAL012W
  The level of expressed mRNA in the presence of chemical substance/The level of expressed mRNA in the absence of chemical substance: 0.8
Yeast gene YAL038W
  The level of expressed mRNA in the presence of chemical substance/The level of expressed mRNA in the absence of chemical substance: 1.4
Yeast gene YBR003W
  level of expressed mRNA in the presence/in the absence of chemical substance: 1.9
Yeast gene YBR011C
  level of expressed mRNA in the presence/in the absence of chemical substance: 1.1
Yeast gene YBR020W
  level of expressed mRNA in the presence/in the absence of chemical substance: 1.9
Yeast gene YBR023C
  The level of expressed mRNA in the presence of chemical substance/The level of expressed mRNA in the absence of chemical substance: 1.1
Yeast gene YBR029C
  The level of expressed mRNA in the presence of chemical substance/The level of expressed mRNA in the absence of chemical substance: 1.0
Yeast gene YBR183W
  The level of expressed mRNA in the presence of chemical substance/The level of expressed mRNA in the absence of chemical substance: 2.9
Yeast gene YBR222C
  The level of expressed mRNA in the presence of chemical substance/The level of expressed mRNA in the absence of chemical substance: 0.8
Yeast gene YBR256C
  The level of expressed mRNA in the presence of chemical substance/The level of expressed mRNA in the absence of chemical substance: 1.3
Yeast gene YCL009C
  The level of expressed mRNA in the presence of chemical substance/The level of expressed mRNA in the absence of chemical substance: 0.5
Yeast gene YCL064C
  The level of expressed mRNA in the presence of chemical substance/The level of expressed mRNA in the absence of chemical substance: 0.8
Yeast gene YCR010C
  level of expressed mRNA in the presence/in the absence of chemical substance: 4.2
Yeast gene YCR034W
  level of expressed mRNA in the presence/in the absence of chemical substance: 0.9
Yeast gene YCR048W
  The level of expressed mRNA in the presence of chemical substance/The level of expressed mRNA in the absence of chemical substance: 0.6
Yeast gene YCR098C
  The level of expressed mRNA in the presence of chemical substance/The level of expressed mRNA in the absence of chemical substance: 2.0
Yeast gene YDR019C
  The level of expressed mRNA in the presence of chemical substance/The level of expressed mRNA in the absence of chemical substance: 4.0
Yeast gene YDR050C
  level of expressed mRNA in the presence/in the absence of chemical substance: 1.8
Yeast gene YDR073W
  level of expressed mRNA in the presence/in the absence of chemical substance: 1.4
Yeast gene YDR123C
  level of expressed mRNA in the presence/in the absence of chemical substance: 2.1
Yeast gene YDR178W
  level of expressed mRNA in the presence/in the absence of chemical substance: 2.2
Yeast gene YDR277C
  level of expressed mRNA in the presence/in the absence of chemical substance: 3.0
Yeast gene YDR284C
  level of expressed mRNA in the presence/in the absence of chemical substance: 2.9
Yeast gene YDR345C
  level of expressed mRNA in the presence/in the absence of chemical substance: 2.6
Yeast gene YDR380W
  The level of expressed mRNA in the presence of chemical substance/The level of expressed mRNA in the absence of chemical substance: 1.7
Yeast gene YDR400W
  level of expressed mRNA in the presence/in the absence of chemical substance: 0.7
Yeast gene YDR408C
  level of expressed mRNA in the presence/in the absence of chemical substance: 4.1
Yeast gene YDR483W
  level of expressed mRNA in the presence/in the absence of chemical substance: 2.0
Yeast gene YDR497C
  The level of expressed mRNA in the presence of chemical substance/The level of expressed mRNA in the absence of chemical substance: 1.3
Yeast gene YDR502C
  The level of expressed mRNA in the presence of chemical substance/The level of expressed mRNA in the absence of chemical substance: 1.2
Yeast gene YDR516C
  The level of expressed mRNA in the presence of chemical substance/The level of expressed mRNA in the absence of chemical substance: 2.1
Yeast gene YEL063C
  level of expressed mRNA in the presence/in the absence of chemical substance: 1.3
Yeast gene YER015W
  level of expressed mRNA in the presence/in the absence of chemical substance: 1.5
Yeast gene YER026C
  The level of expressed mRNA in the presence of chemical substance/The level of expressed mRNA in the absence of chemical substance: 1.0
Yeast gene YER053C
  The level of expressed mRNA in the presence of chemical substance/The level of expressed mRNA in the absence of chemical substance: 1.7
Yeast gene YER069W
  The level of expressed mRNA in the presence of chemical substance/The level of expressed mRNA in the absence of chemical substance: 1.4
Yeast gene YER081W
  level of expressed mRNA in the presence/in the absence of chemical substance: 1.4
Yeast gene YER096W
  The level of expressed mRNA in the presence of chemical substance/The level of expressed mRNA in the absence of chemical substance: 2.0
Yeast gene YER120W
  level of expressed mRNA in the presence/in the absence of chemical substance: 0.8
Yeast gene YER178W
  The level of expressed mRNA in the presence of chemical substance/The level of expressed mRNA in the absence of chemical substance: 1.0
Yeast gene YFL011W
  level of expressed mRNA in the presence/in the absence of chemical substance: 3.3
Yeast gene YFL014W
  The level of expressed mRNA in the presence of chemical substance/The level of expressed mRNA in the absence of chemical substance: 11.0
Yeast gene YFL030W
  The level of expressed mRNA in the presence of chemical substance/The level of expressed mRNA in the absence of chemical substance: 2.0
Yeast gene YFL031W
  The level of expressed mRNA in the presence of chemical substance/The level of expressed mRNA in the absence of chemical substance: 0.7
Yeast gene YFL056C
  The level of expressed mRNA in the presence of chemical substance/The level of expressed mRNA in the absence of chemical substance: 1.5
Yeast gene YFL057C
  The level of expressed mRNA in the presence of chemical substance/The level of expressed mRNA in the absence of chemical substance: 1.8
Yeast gene YFR047C
  The level of expressed mRNA in the presence of chemical substance/The level of expressed mRNA in the absence of chemical substance: 2.6
Yeast gene YGL012W
  level of expressed mRNA in the presence/in the absence of chemical substance: 1.2
Yeast gene YGL022W
  The level of expressed mRNA in the presence of chemical substance/The level of expressed mRNA in the absence of chemical substance: 0.3
Yeast gene YGL115W
  level of expressed mRNA in the presence/in the absence of chemical substance: 2.0
Yeast gene YGL126W
  The level of expressed mRNA in the presence of chemical substance/The level of expressed mRNA in the absence of chemical substance: 0.8
Yeast gene YGL205W
  level of expressed mRNA in the presence/in the absence of chemical substance: 0.8
Yeast gene YGL209W
  The level of expressed mRNA in the presence of chemical substance/The level of expressed mRNA in the absence of chemical substance: 2.6
Yeast gene YGL248W
  The level of expressed mRNA in the presence of chemical substance/The level of expressed mRNA in the absence of chemical substance: 0.7
Yeast gene YGR037C
  The level of expressed mRNA in the presence of chemical substance/The level of expressed mRNA in the absence of chemical substance: 0.8
Yeast gene YGR055W
  The level of expressed mRNA in the presence of chemical substance/The level of expressed mRNA in the absence of chemical substance: 0.7
Yeast gene YGR096W
  level of expressed mRNA in the presence/in the absence of chemical substance: 4.6
Yeast gene YGR191W
  level of expressed mRNA in the presence/in the absence of chemical substance: 1.5
Yeast gene YGR194C
  The level of expressed mRNA in the presence of chemical substance/The level of expressed mRNA in the absence of chemical substance: 2.1
Yeast gene YGR204W
  level of expressed mRNA in the presence/in the absence of chemical substance: 1.3
Yeast gene YGR256W
  The level of expressed mRNA in the presence of chemical substance/The level of expressed mRNA in the absence of chemical substance: 0.8
Yeast gene YGR282C
  The level of expressed mRNA in the presence of chemical substance/The level of expressed mRNA in the absence of chemical substance: 1.9
Yeast gene YGR288W
  level of expressed mRNA in the presence/in the absence of chemical substance: 2.6
Yeast gene YHR025W
  level of expressed mRNA in the presence/in the absence of chemical substance: 0.6
Yeast gene YHR111W
  The level of expressed mRNA in the presence of chemical substance/The level of expressed mRNA in the absence of chemical substance: 1.9
Yeast gene YHR123W
  level of expressed mRNA in the presence/in the absence of chemical substance: 1.0
Yeast gene YHR137W
  The level of expressed mRNA in the presence of chemical substance/The level of expressed mRNA in the absence of chemical substance: 1.7
Yeast gene YHR174W
  The level of expressed mRNA in the presence of chemical substance/The level of expressed mRNA in the absence of chemical substance: 1.2
Yeast gene YHR176W
  The level of expressed mRNA in the presence of chemical substance/The level of expressed mRNA in the absence of chemical substance: 1.4
Yeast gene YHR210C
  level of expressed mRNA in the presence/in the absence of chemical substance: 5.2
Yeast gene YIL006W
  level of expressed mRNA in the presence/in the absence of chemical substance: 2.9
Yeast gene YIL045W
  The level of expressed mRNA in the presence of chemical substance/The level of expressed mRNA in the absence of chemical substance: 2.2
Yeast gene YIL107C
  The level of expressed mRNA in the presence of chemical substance/The level of expressed mRNA in the absence of chemical substance: 1.5
Yeast gene YIL154C
  The level of expressed mRNA in the presence of chemical substance/The level of expressed mRNA in the absence of chemical substance: 0.8
Yeast gene YIL155C
  The level of expressed mRNA in the presence of chemical substance/The level of expressed mRNA in the absence of chemical substance: 3.7
Yeast gene YIR034C
  The level of expressed mRNA in the presence of chemical substance/The level of expressed mRNA in the absence of chemical substance: 0.6
Yeast gene YIR036C
  The level of expressed mRNA in the presence of chemical substance/The level of expressed mRNA in the absence of chemical substance: 1.8
Yeast gene YJL031C
  The level of expressed mRNA in the presence of chemical substance/The level of expressed mRNA in the absence of chemical substance: 1.3
Yeast gene YJL068C
  The level of expressed mRNA in the presence of chemical substance/The level of expressed mRNA in the absence of chemical substance: 1.6
Yeast gene YJL088W
  The level of expressed mRNA in the presence of chemical substance/The level of expressed mRNA in the absence of chemical substance: 0.5
Yeast gene YJL099W
  The level of expressed mRNA in the presence of chemical substance/The level of expressed mRNA in the absence of chemical substance: 1.3
Yeast gene YJL121C
  level of expressed mRNA in the presence/in the absence of chemical substance: 0.8
Yeast gene YJL167W
  level of expressed mRNA in the presence/in the absence of chemical substance: 1.1
Yeast gene YJL172W
  The level of expressed mRNA in the presence of chemical substance/The level of expressed mRNA in the absence of chemical substance: 1.5
Yeast gene YJL216C
  level of expressed mRNA in the presence/in the absence of chemical substance: 0.9
Yeast gene YJL219W
  The level of expressed mRNA in the presence of chemical substance/The level of expressed mRNA in the absence of chemical substance: 1.6
Yeast gene YJR077C
  level of expressed mRNA in the presence/in the absence of chemical substance: 1.6
Yeast gene YJR137C
  The level of expressed mRNA in the presence of chemical substance/The level of expressed mRNA in the absence of chemical substance: 0.8
Yeast gene YJR143C
  level of expressed mRNA in the presence/in the absence of chemical substance: 0.8
Yeast gene YJR148W
  The level of expressed mRNA in the presence of chemical substance/The level of expressed mRNA in the absence of chemical substance: 3.5
